# Results reported in US5407918A, “16-membered macrolide derivatives and process for producing the same” (Meiji Seika Kaisha, Ltd., priority 1992, dated 1995).
# Read-outs that look alike come from different tables or passages of the source.
# Assays:
# test strains = test: antimicrobial activity in vitro, comparison in words; type: cell-based; conditions: data are not shown
# Method: (§1) Antimicrobial activities of the compounds of the present invention were determined by measuring minimum inhibitory concentration (MIC). Minimum inhibitory concentration was determined by the agar plate dilution method in the following manner.
# (§2) Test strains were subjected to seed culture using Sensitivity test broth (STB, Nissui Pharmaceutical) except that the strains belonging to the genus Streptococcus, Branhamella and Haemophilus were cultured on blood agar plate. A 5 μl portion of cell suspension of the test strains having about 10^6 CFU/ml was inoculated into Sensitivity disk agar (SDA, Nissui Pharmaceutical) supplemented with 5% horse blood and incubated at 37° C. for 20 hours. Then, MIC was measured. For comparison, MDM and leucomycin A7 (LM-A7) was also tested.
# [1] = concentration in serum after oral administration to mice, bioassay; type: in vivo, mice (Jcl:ICR)
# Method: The compound (3) was mixed with a 0.2% solution of carboxymethylcellulose to give a concentration of 4 mg/ml and a 1 ml portion of the resulting emulsion was orally administered to 4-week-old male Jcl:ICR mice. Blood was collected from armpit of the mice 30, 60, 120, 240 and 360 minutes after the administration of the test compound (n=2). The collected blood was allowed to stand at room temperature for about 2 hours and centrifuged for 20 minutes with a centrifuge (KUBOTA KS-5000P) to obtain serum. To the serum was added an equivalent volume of 50% CH3 CN-50 mM phosphate (1:1 by volume) buffer (pH 7.0). The resulting mixture served as a serum sample. The concentration of the test compound in the serum sample was measured by the following bioassay method.
# One hundred […] of the serum sample was poured into a hole made on a test plate containing 40 ml of MRAPJ medium (6 g/l peptone, 3 g/l yeast extract, 1.5 g/l meat extract, 1 g/l glucose and 15 g/l agar, pH 6.5) supplemented with a solution of M. Iuteus ATCC9341 (1%) and incubated at 32° C. for 18 hours and MIC was measured based on the calibration curve. MOM, MDM and RKM were also tested for comparison. […] Thus a long-pending problem of "low concentration in serum" of 16-membered macrolide antibiotics has been solved. […] Thus this compound is considered as a macrolide derivative showing new pharmacokinetics.
# Further, a pharmacokinetics test on the compound (12) of the present invention is carried out in the same manner as described above. Namely, 200 mg/kg of the compound (12) is orally administered to mice and the concentration of this compound in the serum is determined by a bioassay method with the use of M. luteus as a test strain. […] The disadvantage of 16-membered ring macrolide antibiotics, which has been pointed out for a long time, has been thus overcome.
# B. catarrhalis W-0506 = test: MIC, agar plate dilution method; type: cell-based; conditions: Moraxella catarrhalis, W0506, 37° C., 20 hours, read-out: Antimicrobial activity (MIC)
# Method: as §1, §2
# S. pneumoniae IP692 = test: MIC, agar plate dilution method; type: cell-based; conditions: Streptococcus pneumoniae; S. pneumoniae IP692; 37° C., 20 hours; read-out: Antimicrobial activity (MIC)
# Method: as §1, §2
# S. aureus MS15009/pMS98 = test: MIC, agar plate dilution method; type: cell-based; conditions: Staphylococcus aureus, MS15009/PMS98, 20 h, read-out: Antimicrobial activity (MIC)
# Method: as §1, §2
# S. Pyogenes Cook = test: MIC, agar plate dilution method; type: cell-based; conditions: Streptococcus pyogenes, 37° C., 20 hours, read-out: Antimicrobial activity (MIC)
# Method: as §1, §2
# S. aureus M133 = test: MIC, agar plate dilution method; type: cell-based; conditions: Staphylococcus aureus, 37° C., 20 hours, read-out: Antimicrobial activity (MIC)
# Method: as §1, §2
# S. aureus 209P JC-1 = test: MIC, agar plate dilution method; type: cell-based; conditions: Staphylococcus aureus, read-out: Antimicrobial activity (MIC)
# Method: as §1, §2
# S. aureus MS15026 = test: MIC, agar plate dilution method; type: cell-based; conditions: Staphylococcus aureus, 37° C., 20 hours, read-out: Antimicrobial activity (MIC)
# Method: as §1, §2
# E. coli NIHJ JC-2 = test: MIC, agar plate dilution method; type: cell-based; conditions: Escherichia coli, NIHJJC2; E. coli NIHJ JC-2; 37° C., 20 hours; read-out: Antimicrobial activity (MIC)
# Method: as §1, §2
# M. luteus ATCC9341 = test: MIC, agar plate dilution method; type: cell-based; conditions: Micrococcus luteus; M. luteus ATCC9341; 37° C., 20 hours; read-out: Antimicrobial activity (MIC)
# Method: as §1, §2
# S. epidermidis ATCC14990 = test: MIC, agar plate dilution method; type: cell-based; conditions: Staphylococcus epidermidis, 37° C., 20 hours, read-out: Antimicrobial activity (MIC)
# Method: as §1, §2
# E. faecalis W-73 = test: MIC, agar plate dilution method; type: cell-based; conditions: Enterococcus faecalis, W73; E. faecalis W-73; 37° C., 20 hours; read-out: Antimicrobial activity (MIC)
# Method: as §1, §2
# H. influenzae Type b = test: MIC, agar plate dilution method; type: cell-based; conditions: Haemophilus influenzae, read-out: Antimicrobial activity (MIC)
# Method: as §1, §2
# S. Pneumoniae Type 1 = test: MIC, agar plate dilution method; type: cell-based; conditions: Streptococcus pneumoniae; S. Pneumoniae Type 1; 37° C., 20 hours; read-out: Antimicrobial activity (MIC)
# Method: as §1, §2
# B. catarrhalis W-0500 = test: MIC, agar plate dilution method; type: cell-based; conditions: Moraxella catarrhalis, W0500, 37° C., 20 hours, read-out: Antimicrobial activity (MIC)
# Method: as §1, §2
# K. pneumoniae PC1602 = test: MIC, agar plate dilution method; type: cell-based; conditions: Klebsiella pneumoniae, 37° C., 20 hours, read-out: Antimicrobial activity (MIC)
# Method: as §1, §2
# S. aureus MS15027 = test: MIC, agar plate dilution method; type: cell-based; conditions: Staphylococcus aureus, 37° C., 20 hours, read-out: Antimicrobial activity (MIC)
# Method: as §1, §2
# S. aureus MS15009/pMS99 = test: MIC, agar plate dilution method; type: cell-based; conditions: Staphylococcus aureus, MS15009/PMS99, 20 h, read-out: Antimicrobial activity (MIC)
# Method: as §1, §2
# S. aureus M126 = test: MIC, agar plate dilution method; type: cell-based; conditions: Staphylococcus aureus, read-out: Antimicrobial activity (MIC)
# Method: as §1, §2
# H. influenzae 9334 = test: MIC, agar plate dilution method; type: cell-based; conditions: Haemophilus influenzae; H. influenzae 9334; 37° C., 20 hours; read-out: Antimicrobial activity (MIC)
# Method: as §1, §2
# Gram-positive bacteria = test: antimicrobial activity in vitro (summary in words); type: cell-based; conditions: from Tables 2 and 3
# Method: as §1, §2
# [2] = S. aureus 209P JC-1, 37° C., 20 hours
# [3] = S. aureus M126, 37° C., 20 hours
# [4] = H. influenzae Type b, 37° C., 20 hours
SMILES,MIC (B. catarrhalis W-0506),MIC (S. pneumoniae IP692),MIC (S. aureus MS15009/pMS98),MIC (S. Pyogenes Cook),MIC (S. aureus M133),MIC (S. aureus 209P JC-1; [2]),MIC (S. aureus MS15026),MIC (E. coli NIHJ JC-2),MIC (M. luteus ATCC9341),MIC (S. epidermidis ATCC14990),MIC (E. faecalis W-73),MIC (H. influenzae Type b; 20 h),MIC (S. Pneumoniae Type 1),MIC (B. catarrhalis W-0500),MIC (K. pneumoniae PC1602),MIC (S. aureus MS15027),MIC (S. aureus MS15009/pMS99),MIC (S. aureus M126; [3]),MIC (H. influenzae 9334),antimicrobial activity on Gram-positive bacteria (Gram-positive bacteria),further results
CCC(=O)O[C@@H]1CC(=O)O[C@H](C)C/C=C/C=C/[C@H](OC(C)=O)[C@H](C)C[C@H](CC=O)[C@H](O[C@@H]2O[C@H](C)[C@@H](O[C@H]3C[C@@](C)(OC)[C@@H](OCCC(C)C)[C@H](C)O3)[C@H](N(C)C)[C@H]2O)[C@H]1OC [(4)],–,–,–,–,–,–,–,–,–,–,–,–,–,–,–,–,–,–,–,–,"antimicrobial activity compared with compound (3) (test strains): almost comparable to that of the compound (3); concentration in the serum (in words) [1]: sustains a high concentration in the serum; maximum concentration in the serum compared with compound (3) [1]: exceeds even that of the compound (3); concentration in the serum 6 hours after the administration, % of the maximum level ([1]; 6 hours): more than 80%; Tmax ([1]; mouse, serum, after the administration, read-out: time of maximum concentration in the serum): ~2 h"
CCCO[C@H]1[C@H](C)O[C@@H](O[C@H]2[C@H](N(C)C)[C@@H](O)[C@H](O[C@H]3[C@@H](CC=O)C[C@@H](C)[C@@H](O)/C=C/C=C/C[C@@H](C)OC(=O)C[C@@H](O)[C@@H]3OC)O[C@@H]2C)C[C@@]1(C)OC [(9)],3.13 µg/mL,0.2 µg/mL,0.39 µg/mL,0.1 µg/mL,0.39 µg/mL,0.2 µg/mL,> 100 µg/mL,> 100 µg/mL,0.05 µg/mL,0.39 µg/mL,0.78 µg/mL,12.5 µg/mL,0.2 µg/mL,1.56 µg/mL,> 100 µg/mL,0.39 µg/mL,> 100 µg/mL,> 100 µg/mL,6.25 µg/mL,strong antimicrobial activity,–
CO[C@@H]1[C@@H](O[C@@H]2O[C@H](C)[C@@H](O[C@H]3C[C@@](C)(OC)[C@@H](OCCC(C)C)[C@H](C)O3)[C@H](N(C)C)[C@H]2O)[C@@H](CC=O)C[C@@H](C)[C@@H](OC(C)=O)/C=C/C=C/C[C@@H](C)OC(=O)C[C@H]1O [(13)],–,–,–,–,–,–,–,–,–,–,–,–,–,–,–,–,–,–,–,–,antimicrobial activity compared with compound (12) (test strains): comparable in the antimicrobial activity to the compound (12)
CCO[C@]1(C)C[C@H](O[C@H]2[C@H](N(C)C)[C@@H](O)[C@H](O[C@H]3[C@@H](CC=O)C[C@@H](C)[C@@H](O)/C=C/C=C/C[C@@H](C)OC(=O)C[C@@H](O)[C@@H]3OC)O[C@@H]2C)O[C@@H](C)[C@@H]1OCCC(C)C [(14)],0.78 µg/mL,0.2 µg/mL,0.39 µg/mL,0.1 µg/mL,0.78 µg/mL,0.2 µg/mL,> 100 µg/mL,> 100 µg/mL,0.05 µg/mL,0.78 µg/mL,0.78 µg/mL,–,0.2 µg/mL,0.39 µg/mL,> 100 µg/mL,0.39 µg/mL,> 100 µg/mL,> 100 µg/mL,6.25 µg/mL,strong antimicrobial activity,MIC (H. influenzae Type b; [4]): 12.5 µg/mL
CCCO[C@]1(C)C[C@H](O[C@H]2[C@H](N(C)C)[C@@H](O)[C@H](O[C@H]3[C@@H](CC=O)C[C@@H](C)[C@@H](O)/C=C/C=C/C[C@@H](C)OC(=O)C[C@@H](O)[C@@H]3OC)O[C@@H]2C)O[C@@H](C)[C@@H]1OCCC(C)C [(15)],0.78 µg/mL,0.2 µg/mL,0.39 µg/mL,0.1 µg/mL,0.78 µg/mL,0.2 µg/mL,> 100 µg/mL,> 100 µg/mL,0.1 µg/mL,0.78 µg/mL,0.78 µg/mL,50 µg/mL,0.2 µg/mL,0.78 µg/mL,> 100 µg/mL,0.39 µg/mL,> 100 µg/mL,> 100 µg/mL,6.25 µg/mL,strong antimicrobial activity,–
"CCC(=O)O[C@H]1[C@H](C)O[C@@H](O[C@H]2[C@H](N(C)C)[C@@H](O)[C@H](O[C@H]3[C@@H](CC=O)C[C@@H](C)[C@@H](O)/C=C/C=C/C[C@@H](C)OC(=O)C[C@@H](O)[C@@H]3OC)O[C@@H]2C)C[C@@]1(C)O [LM-A7, leucomycin A7, reference compound]",1.56 µg/mL,0.2 µg/mL,0.39 µg/mL,0.1 µg/mL,0.39 µg/mL,–,> 100 µg/mL,> 100 µg/mL,0.05 µg/mL,0.39 µg/mL,0.78 µg/mL,–,0.2 µg/mL,0.78 µg/mL,> 100 µg/mL,0.39 µg/mL,> 100 µg/mL,–,0.78 µg/mL,–,"MIC (S. aureus 209P JC-1; 209P, 20 h): 0.2 µg/mL; MIC (H. influenzae Type b; [4]): 6.25 µg/mL; MIC (S. aureus M126; M126, 20 h): > 100 µg/mL"
